From PMC6165285, “α-Glucosidase Inhibitors: Diphenyl Ethers and Phenolic Bisabolane Sesquiterpenoids from the Mangrove Endophytic Fungus Aspergillus flavus QQSG-3” (Marine Drugs, 2018) come the findings set out here.

The structures appear in SMILES notation. “Also recorded” adds a separate entry of the source.

α-glucosidase, sequence (P53341 whole entry): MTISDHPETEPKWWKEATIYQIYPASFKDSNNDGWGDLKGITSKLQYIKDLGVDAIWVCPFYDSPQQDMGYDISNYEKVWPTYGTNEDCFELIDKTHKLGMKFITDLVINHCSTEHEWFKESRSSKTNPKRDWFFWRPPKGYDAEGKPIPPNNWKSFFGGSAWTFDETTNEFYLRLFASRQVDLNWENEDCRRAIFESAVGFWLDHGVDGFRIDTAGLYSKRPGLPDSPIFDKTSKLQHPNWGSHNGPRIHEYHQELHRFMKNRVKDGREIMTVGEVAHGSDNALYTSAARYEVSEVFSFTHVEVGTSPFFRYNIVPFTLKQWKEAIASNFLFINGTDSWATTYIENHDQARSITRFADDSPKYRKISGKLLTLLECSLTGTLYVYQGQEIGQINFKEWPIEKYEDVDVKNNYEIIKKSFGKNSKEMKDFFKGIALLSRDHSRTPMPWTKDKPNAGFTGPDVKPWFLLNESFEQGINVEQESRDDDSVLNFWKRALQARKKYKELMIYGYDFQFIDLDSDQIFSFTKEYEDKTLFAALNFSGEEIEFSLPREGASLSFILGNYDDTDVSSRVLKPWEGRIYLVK

This test concerns the target α-glucosidase (Saccharomyces cerevisiae, UniProt P53341). Description: α-Glucosidase inhibitory activity (p-nitrophenyl-α-glucopyranoside substrate, absorbance at 405 nm). Type of test: biochemical. Conditions: compared to the positive control acarbose. Here is the method:
α-Glucosidase was assayed according to standard procedures. […] Ten microliters of testing materials (in triplicate) were incubated for 10 min with 20 μL of enzyme stock solution and 60 μL of PBS. After incubation, 10 μL of substrate was added and incubated for 20 min at 37 °C. Absorbance at 405 nm was then determined.
The inhibitory activity of the isolates was determined as a percentage in comparison to a blank (DMSO) according to the following equation: %αGHY=(1−A405t/A405c)×100% where %αGHY is the percentage of inhibition, A405t is the corrected absorbance of the compound under testing (A405end − A405initial), and A405c is the absorbance of the blank (A405endblank − A405initialblank). The IC50 values of compounds were calculated by the nonlinear regression analysis.
On to `Cc1cc(O)cc(Oc2cc(C)cc(OCc3ccc([C@@](C)(O)CCCC(C)C)c(O)c3)c2)c1` [Compound 10, peniciaculin A], for which the “α-glucosidase inhibitory activity, result in words” value is given as “strong inhibitory activity; also recorded: strong inhibitory effects”.
The same measure for `Cc1cc(O)cc(Oc2cc(C)c(O)c(O)c2)c1` [Compound 1]: “better than that of acarbose”; for `Cc1cc(O)cc(Oc2cc(C)c(C(=O)OCC(O)C(O)CO)c(O)c2)c1` (stereo not drawn) [Compound 2]: “better than that of acarbose”; for `C/C(=C\CCC(C)C)c1ccc(Cc2cc(C)cc(O)c2O)cc1O` [Compound 3]: “strong inhibitory activity; also recorded: strong inhibitory effects”.
Consider `C/C(=C\CCC(C)C)c1ccc(Cc2c(C)cc(Oc3cc(C)cc(O)c3)cc2O)cc1O` [Compound 11, expansol D], for which the “α-glucosidase inhibitory activity, result in words” value was “strong inhibitory activity; also recorded: strong inhibitory effects”.
In the case of `CC(C)CCCC(C)(O)c1ccc(COCc2ccc(C(C)(O)CCCC(C)C)c(O)c2)cc1O` (stereo not drawn) [Compound 5] it was “strong inhibitory activity; also recorded: strong inhibitory effects”.
